The nature of data set [1]: relative stability of crystal forms versus temperature. Type of data set: physicochemical.
The nature of data set [2]: polymorph transformation on stirring in solution. Type of data set: physicochemical.

Regarding `O=c1[nH]c(=S)n(C[C@H]2CCCO2)c2nc[nH]c12` [3-(2R-tetrahydrofuryl-methyl)-2-thioxanthine], the “relative stability of the crystalline form” value is recorded as “more stable” in data set [1] (at ambient temperature, such as room temperature, Form A versus Form B) and “more stable” in data set [1] (at temperatures over +65° C., Form B versus Form A). The “polymorph transformation on stirring in solution” value in data set [2] (stirring in a solution about or above 60° C.) is on record as “transforms it to polymorph B”; in data set [2] (stirring in solutions about or below 60° C.), “transforms it to polymorph A”.

The values above are taken from patent publication US20080312311A1, “Crystalline forms of 3-(2R-tetrahydrofuryl-methyl)-2-thioxanthine” (ASTRAZENECA AB, priority 2007, published 2008).
